{"source": "ChEMBL document CHEMBL1137119", "about": "“Design and synthesis of 3-(2-pyridyl)pyrazolo[1,5-a]pyrimidines as potent CRF1 receptor antagonists” (Bioorg Med Chem Lett, 2004)", "data": [{"biological_target": "T1, Corticotropin-releasing factor receptor 1 (Homo sapiens, UniProt P34998)", "T1 sequence (P34998 whole entry)": "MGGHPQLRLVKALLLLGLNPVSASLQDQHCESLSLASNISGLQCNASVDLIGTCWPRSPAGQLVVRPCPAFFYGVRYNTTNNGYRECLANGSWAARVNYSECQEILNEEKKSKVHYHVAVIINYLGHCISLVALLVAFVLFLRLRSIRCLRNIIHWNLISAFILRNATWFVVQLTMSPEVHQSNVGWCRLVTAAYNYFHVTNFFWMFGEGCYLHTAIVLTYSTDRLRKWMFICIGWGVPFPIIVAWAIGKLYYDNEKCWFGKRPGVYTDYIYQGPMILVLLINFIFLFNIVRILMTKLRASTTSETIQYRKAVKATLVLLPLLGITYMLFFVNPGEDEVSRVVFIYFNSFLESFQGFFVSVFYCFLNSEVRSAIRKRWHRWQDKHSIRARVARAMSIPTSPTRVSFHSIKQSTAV", "experiment": "Binding affinity for recombinant human CRF1 receptor", "units": {"Ki": "nM"}, "values": [{"smiles": "CCCN(CCC)c1cc(C)nc2c(-c3ncc(C)cc3[N+](=O)[O-])c(C)nn12", "Ki": 14}, {"smiles": "CCCN(CCC)c1cc(C)nc2c(-c3ncccc3C)c(C)nn12", "Ki": 110}, {"smiles": "CCCN(CCC)c1cc(C)nc2c(-c3ncc(F)cc3C)c(C)nn12", "Ki": 19}, {"smiles": "CCCN(CCC)c1cc(C)nc2c(-c3ncc(N(CC)CC)cc3C)c(C)nn12", "Ki": 13}, {"smiles": "CCCCN(CCCC)c1cc(C)nc2c(-c3ncc(C(F)(F)F)cc3Cl)c(C)nn12", "Ki": 1.1}, {"smiles": "CCCN(CCC)c1cc(C)nc2c(-c3ncc(OC)cc3C)c(C)nn12", "Ki": 10}, {"smiles": "CCCN(CCC)c1cc(C)nc2c(-c3ncc(NC)cc3C)c(C)nn12", "Ki": 40}, {"smiles": "CCCN(CCC)c1cc(C)nc2c(-c3ncc(C)cc3NC)c(C)nn12", "Ki": 13}, {"smiles": "CCCN(CCC)c1cc(C)nc2c(-c3ncc(Cl)cc3C)c(C)nn12", "Ki": 6.7}, {"smiles": "COCCN(CCOC)c1cc(C)nc2c(-c3ncc(Cl)cc3Cl)c(C)nn12", "Ki": 78}, {"smiles": "CCCN(CCC)c1cc(C)nc2c(-c3ncc(N=O)cc3C)c(C)nn12", "Ki": 100}, {"smiles": "CCCN(CCC)c1cc(C)nc2c(-c3ccc(Cl)cn3)c(C)nn12", "Ki": 88}, {"smiles": "CCCN(CCC)c1cc(C)nc2c(-c3ncc(N(C)C)cc3C)c(C)nn12", "Ki": 10}, {"smiles": "CCCN(CCOC)c1cc(C)nc2c(-c3ncc(Cl)cc3Cl)c(C)nn12", "Ki": 3.2}, {"smiles": "CCCN(CCC)c1cc(C)nc2c(-c3ncc(N4CCCCC4)cc3C)c(C)nn12", "Ki": 17}, {"smiles": "CCCN(CCC)c1cc(C)nc2c(-c3ncc(C)cc3N=O)c(C)nn12", "Ki": "> 10000"}, {"smiles": "CCCN(Cc1ccccc1)c1cc(C)nc2c(-c3ncc(C(F)(F)F)cc3Cl)c(C)nn12", "Ki": 1.7}, {"smiles": "CCCN(CCC)c1cc(C)nc2c(-c3ncc(C)cc3Cl)c(C)nn12", "Ki": 6.2}, {"smiles": "CCCN(CCC)c1cc(C)nc2c(-c3ncc([N+](=O)[O-])cc3C)c(C)nn12", "Ki": 9.1}, {"smiles": "CCCN(CC1CC1)c1cc(C)nc2c(-c3ncc(Cl)cc3Cl)c(C)nn12", "Ki": 3.9}, {"smiles": "CCCN(CCC)c1cc(C)nc2c(-c3ncc(C)cc3N(C)C)c(C)nn12", "Ki": 23}, {"smiles": "CCCN(CCC)c1cc(C)nc2c(-c3ncc(C)cc3O)c(C)nn12", "Ki": "> 10000"}, {"smiles": "CCCCN(CCC)c1cc(C)nc2c(-c3ncc(C(F)(F)F)cc3Cl)c(C)nn12", "Ki": 1.2}, {"smiles": "CCCN(CCC)c1cc(C)nc2c(-c3ncc(N)cc3C)c(C)nn12", "Ki": 85}, {"smiles": "CCCN(CCC)c1cc(C)nc2c(-c3ncc(O)cc3C)c(C)nn12", "Ki": 530}, {"smiles": "CCCN(CCC)c1cc(C)nc2c(-c3ncc(C)cc3OC)c(C)nn12", "Ki": 25}, {"smiles": "CCCN(CCC)c1cc(C)nc2c(-c3ncc(I)cc3C)c(C)nn12", "Ki": 6.6}, {"smiles": "CCCN(CCC)c1cc(C)nc2c(-c3ncc(C)cc3N)c(C)nn12", "Ki": 40}, {"smiles": "CCCN(CCC)c1cc(C)nc2c(-c3ncc(Cl)cc3Cl)c(C)nn12", "Ki": 3.2}, {"smiles": "CCCN(CC1CC1)c1cc(C)nc2c(-c3ncc(C(F)(F)F)cc3Cl)c(C)nn12", "Ki": 0.8}, {"smiles": "CCCN(CCC)c1cc(C)nc2c(-c3ncc(C(F)(F)F)cc3Cl)c(C)nn12", "Ki": 1.2}]}, {"biological_target": "T1, Corticotropin-releasing factor receptor 1", "experiment": "Inhibition of CRF-stimulated cAMP production in cells expressing CRF1 receptor", "units": {"IC50": "nM"}, "values": [{"smiles": "CCCN(CCC)c1cc(C)nc2c(-c3ncc(N(C)C)cc3C)c(C)nn12", "IC50": 150}, {"smiles": "CCCN(CCC)c1cc(C)nc2c(-c3ncc([N+](=O)[O-])cc3C)c(C)nn12", "IC50": 180}, {"smiles": "CCCN(CCC)c1cc(C)nc2c(-c3ncc(Cl)cc3Cl)c(C)nn12", "IC50": 49}]}]}
